# Reference: ChEMBL document CHEMBL1201862, “PubChem BioAssay data set” (2004)
# Where “and” joins values, the source holds several entries; their conditions need not be identical. Equal values may be shown once. Calls of active or inactive are those of the source.
# Experiments:
# [1] = molecular target: T1, High affinity choline transporter 1 (Homo sapiens, UniProt Q9GZV3); test: CHT inhibitors, dose response, cell-based, 5-point CRC, membrane potential dye (AID 504840); format: functional
# T1 sequence (Q9GZV3 whole entry): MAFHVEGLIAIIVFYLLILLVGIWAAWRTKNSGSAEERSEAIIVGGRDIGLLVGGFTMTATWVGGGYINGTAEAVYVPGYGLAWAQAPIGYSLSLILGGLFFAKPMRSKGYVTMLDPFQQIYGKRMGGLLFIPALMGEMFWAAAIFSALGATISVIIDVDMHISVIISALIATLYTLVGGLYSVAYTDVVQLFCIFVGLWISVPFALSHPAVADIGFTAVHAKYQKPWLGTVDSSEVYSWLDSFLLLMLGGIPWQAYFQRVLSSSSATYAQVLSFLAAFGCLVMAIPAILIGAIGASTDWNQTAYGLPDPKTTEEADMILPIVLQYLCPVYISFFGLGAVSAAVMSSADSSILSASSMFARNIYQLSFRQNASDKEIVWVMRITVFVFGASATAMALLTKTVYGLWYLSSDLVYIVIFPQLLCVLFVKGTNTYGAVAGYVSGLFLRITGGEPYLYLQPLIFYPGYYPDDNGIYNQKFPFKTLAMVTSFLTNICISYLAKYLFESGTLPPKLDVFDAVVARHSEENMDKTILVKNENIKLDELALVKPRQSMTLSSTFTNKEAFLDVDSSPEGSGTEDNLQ
# [2] = molecular target: T2, Corticotropin-releasing factor receptor 2/Corticotropin-releasing factor-binding protein (Homo sapiens, UniProt P24387+Q13324); test: Dose Response confirmation of uHTS hits for small molecule antagonists of the CRF-binding protein and CRF-R2 receptor complex.; format: functional; conditions: read-out: IC50_Mean
# T2 sequence (Q13324 whole entry): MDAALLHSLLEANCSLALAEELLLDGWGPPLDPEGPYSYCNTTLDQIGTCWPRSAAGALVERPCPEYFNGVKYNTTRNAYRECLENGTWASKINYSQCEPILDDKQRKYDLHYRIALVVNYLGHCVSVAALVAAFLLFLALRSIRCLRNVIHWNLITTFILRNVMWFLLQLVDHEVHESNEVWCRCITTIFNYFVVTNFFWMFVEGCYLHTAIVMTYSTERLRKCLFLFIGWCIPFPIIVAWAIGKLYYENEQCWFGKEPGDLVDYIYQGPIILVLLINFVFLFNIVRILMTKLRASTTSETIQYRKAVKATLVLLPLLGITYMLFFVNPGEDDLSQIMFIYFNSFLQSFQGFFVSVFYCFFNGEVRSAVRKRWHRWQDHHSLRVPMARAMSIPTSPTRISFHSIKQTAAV
# T2 sequence (P24387 whole entry): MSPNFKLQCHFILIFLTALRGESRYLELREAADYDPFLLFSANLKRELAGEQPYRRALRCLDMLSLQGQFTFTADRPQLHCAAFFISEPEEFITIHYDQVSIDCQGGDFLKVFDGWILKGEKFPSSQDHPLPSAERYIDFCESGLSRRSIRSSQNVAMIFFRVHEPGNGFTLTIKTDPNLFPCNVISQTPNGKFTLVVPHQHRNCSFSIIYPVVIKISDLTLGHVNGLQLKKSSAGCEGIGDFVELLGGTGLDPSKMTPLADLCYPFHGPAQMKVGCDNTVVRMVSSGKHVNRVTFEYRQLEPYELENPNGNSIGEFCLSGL
# [3] = molecular target: T3, Short transient receptor potential channel 4 (Mus musculus, UniProt Q9QUQ5); test: mouse TRPC4 channel inhibitors, dose response, cell-based, HEK293 TRPC4/mu-opioid, Fluo-4 calcium (AID 434942); format: functional;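 also: potency of inhibitors blocking the TRPC4 calcium response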
# T3 sequence (Q9QUQ5 whole entry): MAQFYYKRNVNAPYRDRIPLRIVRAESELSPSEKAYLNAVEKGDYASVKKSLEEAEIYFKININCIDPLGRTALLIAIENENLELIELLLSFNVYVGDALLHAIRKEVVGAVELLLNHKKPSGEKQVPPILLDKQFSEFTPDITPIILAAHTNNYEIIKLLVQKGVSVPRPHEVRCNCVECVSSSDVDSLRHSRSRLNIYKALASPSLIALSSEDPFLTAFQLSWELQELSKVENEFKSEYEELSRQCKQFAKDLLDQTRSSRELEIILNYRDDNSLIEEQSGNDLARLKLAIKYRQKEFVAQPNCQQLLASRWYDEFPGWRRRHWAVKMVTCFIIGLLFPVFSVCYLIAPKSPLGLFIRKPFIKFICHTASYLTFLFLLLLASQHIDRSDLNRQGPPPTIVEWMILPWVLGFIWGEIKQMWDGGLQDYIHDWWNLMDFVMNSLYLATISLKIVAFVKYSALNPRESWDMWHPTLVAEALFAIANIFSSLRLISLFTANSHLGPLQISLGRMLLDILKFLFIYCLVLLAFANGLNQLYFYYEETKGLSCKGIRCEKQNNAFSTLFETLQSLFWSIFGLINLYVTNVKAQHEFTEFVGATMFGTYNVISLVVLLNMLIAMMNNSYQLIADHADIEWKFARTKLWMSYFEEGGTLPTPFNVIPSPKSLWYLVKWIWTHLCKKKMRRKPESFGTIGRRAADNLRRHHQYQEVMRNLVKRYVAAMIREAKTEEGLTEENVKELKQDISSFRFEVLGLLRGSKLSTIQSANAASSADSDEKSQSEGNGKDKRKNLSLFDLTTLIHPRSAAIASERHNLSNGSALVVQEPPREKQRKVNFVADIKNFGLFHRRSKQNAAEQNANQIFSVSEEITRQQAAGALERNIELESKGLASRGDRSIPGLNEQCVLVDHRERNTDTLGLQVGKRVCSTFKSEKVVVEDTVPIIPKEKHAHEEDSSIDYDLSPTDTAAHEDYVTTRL
# [4] = molecular target: T2, Corticotropin-releasing factor receptor 2/Corticotropin-releasing factor-binding protein; test: activators of CRF receptor 2 with binding protein – uHTS hits, confirmation (AID 602473); format: functional; conditions: read-out: EC50_Mean
# [5] = Luminescence Cell-Based Dose Retest to Confirm Inhibitors of Cancer Stem Cells. [Related pubchem assays (depositor defined):AID2717, AID2721]; format: functional; conditions: Homo sapiens
# [6] = microbe, parasite or virus in culture; format: functional; conditions: Mycobacterium tuberculosis
# [7] = molecular target: Heat shock protein HSP 90-alpha (Homo sapiens, UniProt P07900); format: functional, organism-based
# SN12K1 = test: cells; format: functional; conditions: Homo sapiens
# P388/ADR = test: cells; format: functional; conditions: Mus musculus
# P388 = test: cells; format: functional; conditions: Mus musculus
# Exodeoxyribonuclease V = molecular target: T4, Exodeoxyribonuclease V (Escherichia coli (strain K12), UniProt P04993+P07648+P08394); test: E. coli RecBCD inhibitors, dose response, counter-screen for AddAB inhibitor project, absorbance, V66 E. coli, mutant T4 phage (AID 492957); format: functional, cell-based, Escherichia coli str. K-12 substr. MG1655
# T4 sequence (P04993 whole entry): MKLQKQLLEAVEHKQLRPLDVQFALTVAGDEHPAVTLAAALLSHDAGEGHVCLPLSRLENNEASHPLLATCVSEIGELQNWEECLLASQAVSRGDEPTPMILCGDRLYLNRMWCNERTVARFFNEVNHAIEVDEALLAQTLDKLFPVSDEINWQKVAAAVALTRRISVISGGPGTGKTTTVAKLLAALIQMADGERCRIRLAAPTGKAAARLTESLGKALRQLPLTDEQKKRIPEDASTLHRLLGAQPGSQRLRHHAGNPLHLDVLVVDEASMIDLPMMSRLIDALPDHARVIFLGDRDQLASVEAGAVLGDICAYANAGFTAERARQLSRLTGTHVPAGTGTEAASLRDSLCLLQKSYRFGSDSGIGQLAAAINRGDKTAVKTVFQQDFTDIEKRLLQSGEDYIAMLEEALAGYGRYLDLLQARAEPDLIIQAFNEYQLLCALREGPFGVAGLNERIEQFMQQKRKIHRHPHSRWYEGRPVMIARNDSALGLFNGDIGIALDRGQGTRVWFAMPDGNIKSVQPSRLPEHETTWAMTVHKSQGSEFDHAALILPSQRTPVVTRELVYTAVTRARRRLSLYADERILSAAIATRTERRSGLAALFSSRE
# T4 sequence (P07648 whole entry): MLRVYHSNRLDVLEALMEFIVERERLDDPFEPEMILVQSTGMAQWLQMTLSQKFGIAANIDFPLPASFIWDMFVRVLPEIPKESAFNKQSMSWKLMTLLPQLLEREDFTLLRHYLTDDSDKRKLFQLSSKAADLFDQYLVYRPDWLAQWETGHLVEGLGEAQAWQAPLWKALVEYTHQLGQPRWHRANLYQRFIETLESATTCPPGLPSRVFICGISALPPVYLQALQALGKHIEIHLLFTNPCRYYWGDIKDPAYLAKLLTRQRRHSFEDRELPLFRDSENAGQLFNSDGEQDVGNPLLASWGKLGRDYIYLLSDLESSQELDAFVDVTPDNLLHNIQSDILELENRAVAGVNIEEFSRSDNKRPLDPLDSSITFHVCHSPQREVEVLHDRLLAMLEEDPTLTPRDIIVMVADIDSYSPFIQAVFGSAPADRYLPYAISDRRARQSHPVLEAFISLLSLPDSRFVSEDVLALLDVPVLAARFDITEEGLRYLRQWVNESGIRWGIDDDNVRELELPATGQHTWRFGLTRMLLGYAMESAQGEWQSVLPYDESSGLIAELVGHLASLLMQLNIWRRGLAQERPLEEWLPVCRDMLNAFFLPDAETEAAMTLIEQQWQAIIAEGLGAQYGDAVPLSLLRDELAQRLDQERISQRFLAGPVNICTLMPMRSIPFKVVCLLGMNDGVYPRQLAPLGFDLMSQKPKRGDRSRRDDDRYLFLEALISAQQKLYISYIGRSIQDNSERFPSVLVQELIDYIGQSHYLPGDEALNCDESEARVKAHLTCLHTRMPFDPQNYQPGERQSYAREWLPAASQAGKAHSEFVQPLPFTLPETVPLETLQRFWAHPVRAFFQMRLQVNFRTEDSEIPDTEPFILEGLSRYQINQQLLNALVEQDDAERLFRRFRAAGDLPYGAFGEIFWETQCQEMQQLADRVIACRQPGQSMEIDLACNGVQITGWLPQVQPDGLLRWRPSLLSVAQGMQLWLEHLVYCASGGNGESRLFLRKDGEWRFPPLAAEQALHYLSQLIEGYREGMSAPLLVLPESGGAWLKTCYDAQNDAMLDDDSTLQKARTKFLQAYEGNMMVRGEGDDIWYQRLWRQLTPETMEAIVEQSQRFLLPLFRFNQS
# T4 sequence (P08394 whole entry): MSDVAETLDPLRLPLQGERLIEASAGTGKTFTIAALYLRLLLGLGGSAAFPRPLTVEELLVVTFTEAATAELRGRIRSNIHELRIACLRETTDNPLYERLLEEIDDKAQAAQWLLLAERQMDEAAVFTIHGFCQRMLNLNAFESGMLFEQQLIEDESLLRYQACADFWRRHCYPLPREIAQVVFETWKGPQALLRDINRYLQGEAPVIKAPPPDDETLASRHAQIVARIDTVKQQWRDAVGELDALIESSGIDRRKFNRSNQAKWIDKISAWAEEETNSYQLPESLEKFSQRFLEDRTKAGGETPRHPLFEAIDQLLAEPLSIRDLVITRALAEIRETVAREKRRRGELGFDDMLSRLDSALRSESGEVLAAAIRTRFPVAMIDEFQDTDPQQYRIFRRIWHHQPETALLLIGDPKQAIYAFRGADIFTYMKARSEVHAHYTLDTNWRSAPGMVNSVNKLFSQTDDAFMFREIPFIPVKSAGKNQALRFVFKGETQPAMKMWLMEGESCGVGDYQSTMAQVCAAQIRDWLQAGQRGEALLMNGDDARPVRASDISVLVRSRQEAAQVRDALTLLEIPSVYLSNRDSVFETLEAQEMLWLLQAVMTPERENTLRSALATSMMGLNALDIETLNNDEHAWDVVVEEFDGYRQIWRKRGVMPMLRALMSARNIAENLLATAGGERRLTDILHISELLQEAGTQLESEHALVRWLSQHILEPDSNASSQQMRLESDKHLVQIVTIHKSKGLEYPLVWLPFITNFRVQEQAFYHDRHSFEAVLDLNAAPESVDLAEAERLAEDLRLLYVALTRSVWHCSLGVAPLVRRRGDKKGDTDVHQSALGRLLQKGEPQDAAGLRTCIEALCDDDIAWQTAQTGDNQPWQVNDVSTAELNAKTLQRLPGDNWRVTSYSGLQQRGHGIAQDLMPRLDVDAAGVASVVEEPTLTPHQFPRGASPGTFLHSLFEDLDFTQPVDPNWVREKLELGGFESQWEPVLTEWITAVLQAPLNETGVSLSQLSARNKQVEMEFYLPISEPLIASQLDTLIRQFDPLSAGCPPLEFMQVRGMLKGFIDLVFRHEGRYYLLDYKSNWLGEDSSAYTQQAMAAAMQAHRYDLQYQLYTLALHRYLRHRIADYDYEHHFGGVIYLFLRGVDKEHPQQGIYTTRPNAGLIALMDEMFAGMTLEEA
smiles,measurement,setting,value
Cc1cccc(C2c3[nH]c4ccccc4c3CCN2C(=O)c2cc3c(nc2O)CCCC3)n1 (stereo not given),IC50,[1],11.2 µM (active)
Cc1ccc(S(=O)(=O)Oc2ccc(/C=C3/C(=N)N4C(=NC3=O)SN=C4S(C)(=O)=O)cc2)cc1,IC50,[1],13.8 µM (active)
c1ccc2c(c1)nnn2-c1ncnc2sc3c(c12)CCCC3,IC50,[2],> 47.1 µM (inactive)
same,EC50,[3],6.68 µM (active)
same,EC50,[4],> 53 µM (inactive)
Oc1cccc(C(O)CNCc2ccc(OCc3ccc(Cl)cc3Cl)cc2)c1 (stereo not given),AC50,[5],3.69 µM (active)
same,IC50,[1],1.82 µM (active)
O=C(OCC(=O)C12CC3CC(CC(C3)C1)C2)c1ccc(O)cc1O,CC50,[6],> 40 µM (active)
same,AC50,[7],24.5 µM (active)
C=CCn1cc(C(=O)NCCCN(CC)CC)c(=O)c2cc(S(=O)(=O)N3CCC(C)CC3)ccc21,IC50,[1],13.2 µM (active)
O=C(/C=C/c1ccccc1)CCN1CCOCC1,GI50,SN12K1,16.5 µM (inactive)
same,GI50,P388/ADR,2.43 µM (inactive)
same,GI50,P388,2.81 µM (inactive)
same,AC50,[7],2.94 µM (active)
CCc1cn([C@H]2C[C@H](O)[C@@H](CO)O2)c(=O)[nH]c1=O [EDOXUDINE],IC50,Exodeoxyribonuclease V,> 119 µM (inactive) and > 118 µM (inactive)
